Measurements taken from patent US4468511A, “C-20- And C-23-Modified macrolide derivatives” (Eli Lilly and Company, priority 1983, dated 1984).
Converted amounts (≈) assume the structure as drawn. Where two headings read alike, the source gives them in different places.

Legend:
Type in all cases: cell-based
Escherichia coli EC14 = assay: MIC, standard agar-dilution assay
Experimental: (§1) Certain of the derivatives are active against some gram-negative bacteria, such as Pasteurella species. The MIC's in Table II were determined by standard agar-dilution assays. The MIC's in Table III were obtained using a conventional broth-dilution microtiter test.

Escherichia coli TEM = assay: MIC, standard agar-dilution assay
Experimental: as §1

[1] = test system: Klebsiella pneumoniae KAE; assay: MIC, standard agar-dilution assay; conditions: agar-dilution; Klebsiella pneumoniae KAE; read-out: MIC
Experimental: as §1

[2] = test system: Klebsiella pneumoniae X26; assay: MIC, standard agar-dilution assay
Experimental: as §1

[3] = test system: Staphylococcus aureus V41; assay: MIC, standard agar-dilution assay; conditions: Staphylococcus aureus, V41
Experimental: as §1

[4] = test system: Staphylococcus aureus X1.1; assay: MIC, standard agar-dilution assay
Experimental: as §1

[5] = test system: Streptococcus Group D X66; assay: MIC, standard agar-dilution assay
Experimental: as §1

[6] = test system: Streptococcus pneumoniae Park I; assay: MIC, standard agar-dilution assay
Experimental: as §1

[7] = test system: Streptococcus pyogenes 9960; assay: MIC, standard agar-dilution assay
Experimental: as §1

[8] = test system: Streptococcus pyogenes C203; assay: MIC, standard agar-dilution assay
Experimental: as §1

[9] = test system: Haemophilus influenzae 76; assay: MIC, standard agar-dilution assay
Experimental: (§2) The MIC's in Table II were determined by standard agar-dilution assays. The MIC's in Table III were obtained using a conventional broth-dilution microtiter test.

[10] = test system: Haemophilus influenzae C.L.; assay: MIC, standard agar-dilution assay
Experimental: as §2

[11] = test system: Staphylococcus aureus X400; assay: MIC, standard agar-dilution assay
Experimental: as §2

[12] = test system: Staphylococcus epidermidis EPI2; assay: MIC, standard agar-dilution assay
Experimental: as §2

[13] = test system: Staphylococcus aureus S13E; assay: microbe, parasite or virus in culture
Experimental: as §2

[14] = test system: Staphylococcus epidermidis EPI1; assay: microbe, parasite or virus in culture; conditions: Staphylococcus epidermidis, EPI1
Experimental: as §2

[15] = test system: Mycoplasma gallisepticum 34159; assay: MIC, conventional broth-dilution microtiter test; conditions: Mycoplasmoides gallisepticum; broth-dilution microtiter; Mycoplasma gallisepticum 34159, Resistant strain; read-out: MIC
Experimental: as §1

[16] = test system: Mycoplasma gallisepticum 41313; assay: MIC, conventional broth-dilution microtiter test; conditions: Mycoplasmoides gallisepticum; broth-dilution microtiter; Mycoplasma gallisepticum 41313, Resistant strain; read-out: MIC
Experimental: as §1

Mycoplasma gallisepticum = assay: MIC, conventional broth-dilution microtiter test; conditions: Mycoplasmoides gallisepticum
Experimental: as §1

Mycoplasma hyorhinis = assay: MIC, conventional broth-dilution microtiter test
Experimental: as §1

[17] = test system: Pasteurella hemolytica 22C; assay: MIC, conventional broth-dilution microtiter test
Experimental: as §1

[18] = test system: Pasteurella hemolytica 23C; assay: MIC, conventional broth-dilution microtiter test
Experimental: as §1

[19] = test system: Pasteurella hemolytica 41D; assay: MIC, conventional broth-dilution microtiter test
Experimental: as §1

[20] = test system: Pasteurella multocida 17E; assay: MIC, conventional broth-dilution microtiter test; conditions: broth-dilution microtiter; Pasteurella multocida 17E, Bovine isolate; read-out: MIC
Experimental: as §1

[21] = test system: Pasteurella multocida 22A; assay: MIC, conventional broth-dilution microtiter test; conditions: broth-dilution microtiter; Pasteurella multocida 22A; read-out: MIC
Experimental: as §1

[22] = test system: Pasteurella multocida 40G; assay: MIC, conventional broth-dilution microtiter test; conditions: broth-dilution microtiter; Pasteurella multocida 40G; read-out: MIC
Experimental: as §1

[23] = test system: Pasteurella multocida 60A; assay: MIC, conventional broth-dilution microtiter test; conditions: broth-dilution microtiter; Pasteurella multocida 60A, Avian isolate; read-out: MIC
Experimental: as §1

[24] = test system: Pasteurella multocida 68C; assay: MIC, conventional broth-dilution microtiter test; conditions: broth-dilution microtiter; Pasteurella multocida 68C; read-out: MIC
Experimental: as §1

Staphylococcus aureus = assay: MIC, conventional broth-dilution microtiter test
Experimental: as §1

Streptococcus sp. 80 = assay: MIC, conventional broth-dilution microtiter test; conditions: broth-dilution microtiter; Streptococcus sp. 80; read-out: MIC
Experimental: as §1

[25] = agar-dilution, Escherichia coli TEM, read-out: MIC
[26] = agar-dilution, Streptococcus 9960, read-out: MIC
[27] = Staphylococcus epidermidis, EPI2
[28] = agar-dilution, Escherichia coli EC14, read-out: MIC
[29] = agar-dilution, Klebsiella pneumoniae X26, read-out: MIC
[30] = broth-dilution microtiter, Mycoplasma hyorhinis, read-out: MIC
[31] = broth-dilution microtiter, Pasteurella hemolytica 22C, read-out: MIC
[32] = broth-dilution microtiter, Pasteurella hemolytica 23C, read-out: MIC
[33] = broth-dilution microtiter, Pasteurella hemolytica 41D, read-out: MIC
[34] = broth-dilution microtiter, read-out: MIC
[35] = agar-dilution, Streptococcus Group D X66, read-out: MIC

Row | Compound | MIC (Escherichia coli TEM; [25]) [µg/mL] | MIC [1] [µg/mL] | MIC ([2]; Klebsiella pneumoniae, X26) [µg/mL] | MIC [3] [µg/mL] | MIC ([4]; Staphylococcus aureus, X1.1) [µg/mL] | MIC ([6]; Streptococcus pneumoniae) [µg/mL] | MIC [7, 26] [µg/mL] | MIC ([11]; Staphylococcus aureus, X400) [µg/mL] | MIC [12, 27] [µg/mL] | MIC [13] [µg/mL] | MIC [14] [µg/mL] | MIC (Escherichia coli EC14; [28]) [µg/mL] | MIC [15] [µg/mL] | MIC [16] [µg/mL] | MIC [20] [µg/mL] | MIC [21] [µg/mL] | MIC [22] [µg/mL] | MIC [23] [µg/mL] | MIC [24] [µg/mL] | MIC (Streptococcus sp. 80) [µg/mL] | also measured
1 | CCC1OC(=O)CC(O)C(C)C(OC2OC(C)C(O)C(N(C)C)C2O)C(CCO)CC(C)C(=O)C=CC(C)=CC1COC(=O)CCc1ccccc1 (stereo not drawn) [Compound 52, 20-Dihydro-23-O-phenylpropionyl-OMT] | 8 (≈ 10.9 µM) | > 128 | 4 (≈ 5.47 µM) | 0.5 (≈ 0.683 µM) | 0.5 (≈ 0.683 µM) | 0.25 (≈ 0.342 µM) | 2 (≈ 2.73 µM) | 1 (≈ 1.37 µM) | 0.5 (≈ 0.683 µM) | 0.5 (≈ 0.683 µM) | 0.5 (≈ 0.683 µM) |  |  |  |  |  |  |  |  |  | MIC (Escherichia coli EC14; Escherichia coli, EC14): 64 µg/mL (≈ 87.4 µM); MIC [5]: 1 µg/mL (≈ 1.37 µM); MIC ([8]; Streptococcus pyogenes, C203): 0.25 µg/mL (≈ 0.342 µM); MIC ([9]; agar-dilution, Haemophilus influenzae 76, Ampicillin-resistant strain, read-out: MIC): 8 µg/mL (≈ 10.9 µM); MIC ([10]; agar-dilution, Haemophilus influenzae C.L., Ampicillin-sensitive strain, read-out: MIC): 8 µg/mL (≈ 10.9 µM)
2 | CCC1OC(=O)CC(O)C(C)C(OC2OC(C)C(O)C(N(C)C)C2O)C(CCN2C(=O)c3ccccc3C2=O)CC(C)C(=O)C=CC(C)=CC1CO (stereo not drawn) [Compound 6, 20-N-Phthalimido-20-deoxy-20-dihydro-OMT] |  | > 128 |  | 8 (≈ 11 µM) |  |  |  | 16 (≈ 22 µM) |  | 8 (≈ 11 µM) | 4 (≈ 5.49 µM) | > 128 | 50 (≈ 68.6 µM) | 50 (≈ 68.6 µM) | 50 (≈ 68.6 µM) | 50 (≈ 68.6 µM) | 50 (≈ 68.6 µM) | 50 (≈ 68.6 µM) | 25 (≈ 34.3 µM) | 3.12 (≈ 4.28 µM) | MIC (Escherichia coli TEM; Escherichia coli): 64 µg/mL (≈ 87.8 µM); MIC [2, 29]: 16 µg/mL (≈ 22 µM); MIC ([4]; agar-dilution, Staphylococcus aureus X1.1, read-out: MIC): 4 µg/mL (≈ 5.49 µM); MIC [5]: 16 µg/mL (≈ 22 µM); MIC ([6]; agar-dilution, Streptococcus pneumoniae Park I, read-out: MIC): 2 µg/mL (≈ 2.74 µM); MIC [7]; 9960: 16 µg/mL (≈ 22 µM); MIC ([9]; Haemophilus influenzae, 76): 64 µg/mL (≈ 87.8 µM); MIC ([10]; Haemophilus influenzae): 64 µg/mL (≈ 87.8 µM); MIC ([12]; agar-dilution, Staphylococcus epidermidis EPI2, read-out: MIC): 2 µg/mL (≈ 2.74 µM); MIC (Mycoplasma gallisepticum; broth-dilution microtiter, Mycoplasma gallisepticum, read-out: MIC): 3.12 µg/mL (≈ 4.28 µM); MIC (Mycoplasma hyorhinis; [30]): 50 µg/mL (≈ 68.6 µM); MIC [17, 31]: 50 µg/mL (≈ 68.6 µM); MIC [18, 32]: 50 µg/mL (≈ 68.6 µM); MIC [19, 33]: 50 µg/mL (≈ 68.6 µM); MIC (Staphylococcus aureus; [34]): 25 µg/mL (≈ 34.3 µM)
3 | CCC1OC(=O)CC(O)C(C)C(OC2OC(C)C(O)C(N(C)C)C2O)C(CCN2C(=O)c3ccccc3C2=O)CC(C)C(=O)C=CC(C)=CC1C (stereo not drawn) [Compound 22, 20-N-Phthalimido-20-deoxy-20-dihydro-DOMT] | 128 (≈ 180 µM) | > 128 | 32 (≈ 44.9 µM) | 8 (≈ 11.2 µM) | 8 (≈ 11.2 µM) | 4 (≈ 5.61 µM) | 16 (≈ 22.4 µM) | 32 (≈ 44.9 µM) | 4 (≈ 5.61 µM) | 8 (≈ 11.2 µM) | 8 (≈ 11.2 µM) | > 128 | 50 (≈ 70.1 µM) | 50 (≈ 70.1 µM) | 50 (≈ 70.1 µM) | 50 (≈ 70.1 µM) | 50 (≈ 70.1 µM) | 50 (≈ 70.1 µM) | 25 (≈ 35.1 µM) | 6.25 (≈ 8.77 µM) | MIC [5, 35]: 16 µg/mL (≈ 22.4 µM); MIC ([9]; Haemophilus influenzae, 76): 128 µg/mL (≈ 180 µM); MIC ([10]; Haemophilus influenzae): 128 µg/mL (≈ 180 µM); MIC (Mycoplasma gallisepticum): 0.78 µg/mL (≈ 1.09 µM); MIC (Mycoplasma hyorhinis; [30]): 25 µg/mL (≈ 35.1 µM); MIC [17, 31]: 50 µg/mL (≈ 70.1 µM); MIC [18, 32]: 50 µg/mL (≈ 70.1 µM); MIC [19, 33]: 50 µg/mL (≈ 70.1 µM); MIC (Staphylococcus aureus; [34]): 25 µg/mL (≈ 35.1 µM)
4 | CCC1CC(C)C(=O)C=CC(C)=CC(COC(C)=O)C(CC)OC(=O)CC(O)C(C)C1OC1OC(C)C(OC(C)=O)C(N(C)C)C1OC(C)=O (stereo not drawn) [Compound 40, 2',4',23-Tri-O-acetyl-20-deoxy-20-dihydro-OMT] | > 128 | > 128 |  | 4 (≈ 5.63 µM) | 4 (≈ 5.63 µM) | 4 (≈ 5.63 µM) | 8 (≈ 11.3 µM) |  | 4 (≈ 5.63 µM) | 4 (≈ 5.63 µM) | 4 (≈ 5.63 µM) | > 128 | > 50 | > 50 | 25 (≈ 35.2 µM) | 25 (≈ 35.2 µM) | 25 (≈ 35.2 µM) | 12.5 (≈ 17.6 µM) | 12.5 (≈ 17.6 µM) | 12.5 (≈ 17.6 µM) | MIC [2, 29]: 16 µg/mL (≈ 22.5 µM); MIC [5, 35]: 8 µg/mL (≈ 11.3 µM); MIC ([8]; agar-dilution, Streptococcus pyogenes C203, read-out: MIC): 16 µg/mL (≈ 22.5 µM); MIC ([11]; agar-dilution, Staphylococcus aureus X400, Methicillin-resistant strain, read-out: MIC): 16 µg/mL (≈ 22.5 µM); MIC (Mycoplasma gallisepticum): 6.25 µg/mL (≈ 8.8 µM); MIC (Mycoplasma hyorhinis; Mycoplasma): 50 µg/mL (≈ 70.4 µM); MIC ([17]; Pasteurella, 22C): 50 µg/mL (≈ 70.4 µM); MIC ([18]; Pasteurella, 23C): 50 µg/mL (≈ 70.4 µM); MIC ([19]; Pasteurella, 41D): 50 µg/mL (≈ 70.4 µM); MIC (Staphylococcus aureus): 6.25 µg/mL (≈ 8.8 µM)
